Among the data in patent publication EP2768830B1, “APOPTOSIS-INDUCING AGENTS FOR THE TREATMENT OF CANCER AND IMMUNE AND AUTOIMMUNE DISEASES” (AbbVie Inc., priority 2011, dated 2013) are EC50 and Ki values, retold here.

In general, pKi refers to the negative decadic logarithm of the Ki, by convention in mol/L.

The subject of assay [1] is mouse FL5.12 cells transfected with Bcl-XL. Put plainly: FL5.12 cellular assay (cell viability, CellTiter-Glo).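 Also: each EC50 determination derived from duplicate measurements.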 It counts as cell-based. Conditions: FL5.12 cells transfected with Bcl-XL, IL-3-depleted, 3% FBS assay media, 24 hours, CellTiter-Glo, read-out: FL5.12 Bcl-xL, - IL3, EC 50. In general terms: Cellular ATP, detected with luciferase, serves as a proxy for viable cell number.
Experimental: For assaying the compound activity, the cells were exchanged into an IL-3-depleted deprivation media, which was identical to the growth media except for the absence of FBS and WEHI-3B conditional media, for 2 days. Then the cells were exchanged to 3% FBS assay media (RPMI with 2 mM glutamine, 1% 100 mM sodium pyruvate, 2% 1 M HEPES, 4 µL/L of β-mercaptoethanol, 1% penicillin-streptomycin, 3% FBS). Compounds in series dilutions were added, and the cells were cultured for 24 hours. Compounds in series dilutions were added, and the cells were cultured for 24 hours. Cell viability was assayed using the CellTiter-Glo assay (Promega Corp., Madison, WI) according to the manufacturer instructions. Individual determinations were the result of duplicate values.

In another assay the target is GST-Bcl-xL (Homo sapiens, UniProt Q07817). To be noted: read-out: TR-FRET binding Bcl-xL Ki.
GST-Bcl-xL, sequence (Q07817 whole entry): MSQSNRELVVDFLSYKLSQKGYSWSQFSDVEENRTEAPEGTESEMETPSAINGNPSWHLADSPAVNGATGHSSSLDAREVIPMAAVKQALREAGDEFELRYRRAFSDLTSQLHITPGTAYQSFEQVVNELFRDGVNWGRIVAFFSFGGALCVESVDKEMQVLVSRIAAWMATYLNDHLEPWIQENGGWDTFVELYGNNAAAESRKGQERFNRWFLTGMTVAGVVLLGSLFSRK

pEC50, pKi: −log10 of the molar value. Read-outs that look alike come from different tables or passages of the source.

With `O=C(Nc1nc2ccccc2s1)c1cccc2c1CN(c1ccc(-c3cccc4c3cnn4Cc3ccccc3)c(C(=O)O)n1)CC2` [Example 187, 6-[8-(1,3-benzothiazol-2-ylcarbamoyl)-3,4-dihydroisoquinolin-2(1H)-yl]-3-(1-benzyl-1H-indazol-4-yl)pyridine-2-carboxylic acid], in assay [1] (Mus musculus), the pEC50 is 6.50. In addition, the pKi on GST-Bcl-xL was 9.40.

Regarding `O=C(Nc1nc2ccccc2s1)c1cccc2c1CN(c1ccc(-c3cnn(CC4CCOCC4)c3)c(C(=O)O)n1)CC2` [Example 50, 6-[8-(1,3-benzothiazol-2-ylcarbamoyl)-3,4-dihydroisoquinolin-2(1H)-yl]-3-[1-(tetrahydro-2H-pyran-4-ylmethyl)-1H-pyrazol-4-yl]pyridine-2-carboxylic acid], the pEC50 in assay [1] (Mus musculus) is under 6.00. The pKi on GST-Bcl-xL was 7.00.

In the case of `O=C(Nc1nc2ccccc2s1)c1cccc2c1CN(c1ccc(-c3cnn(CC4CCCCC4)c3C3CC3)c(C(=O)O)n1)CC2` [Example 70, 6-[8-(1,3-benzothiazol-2-ylcarbamoyl)-3,4-dihydroisoquinolin-2(1H)-yl]-3-[1-(cyclohexylmethyl)-5-cyclopropyl-1H-pyrazol-4-yl]pyridine-2-carboxylic acid], the pEC50 in assay [1] (Mus musculus) was 7.24. Also, the pKi on GST-Bcl-xL was 8.30.

For `Cc1c(-c2ccc(N3CCc4cccc(C(=O)Nc5nc6ccccc6s5)c4C3)nc2C(=O)O)cnn1CC1(OCCN2CCS(=O)(=O)CC2)CCCCC1` [Example 167, 6-[8-(1,3-benzothiazol-2-ylcarbamoyl)-3,4-dihydroisoquinolin-2(1H)-yl]-3-[1-({1-[2-(1,1-dioxidothiomorpholin-4-yl)ethoxy]cyclohexyl}methyl)-5-methyl-1H-pyrazol-4-yl]pyridine-2-carboxylic acid], the pEC50 in assay [1] (Mus musculus) was 7.09. Also, the pKi on GST-Bcl-xL was over 10.00.

On to `O=C(Nc1nc2ccccc2s1)c1cccc2c1CN(c1ccc(-c3cnn(CC4(C(F)(F)F)CCCCC4)c3)c(C(=O)O)n1)CC2` [Example 74, 6-[8-(1,3-benzothiazol-2-ylcarbamoyl)-3,4-dihydroisoquinolin-2(1H)-yl]-3-(1-{[1-(trifluoromethyl)cyclohexyl]methyl}-1H-pyrazol-4-yl)pyridine-2-carboxylic acid], for which the pEC50 in assay [1] (Mus musculus) is 6.47. Besides, the pKi on GST-Bcl-xL is 8.22.

For the compound `Cc1c(-c2ccc(N3CCc4cccc(C(=O)Nc5nc6ccccc6s5)c4C3)nc2C(=O)O)cnn1Cc1ccccc1OCCN(C)C` [Example 49, 6-[8-(1,3-benzothiazol-2-ylcarbamoyl)-3,4-dihydroisoquinolin-2(1H)-yl]-3-(1-{2-[2-(dimethylamino)ethoxy]benzyl}-5-methyl-1H-pyrazol-4-yl)pyridine-2-carboxylic acid], in assay [1] (Mus musculus), the pEC50 was 7.92. Moreover, at GST-Bcl-xL, the pKi is 9.22.

With `Cc1ccc(Oc2ccccc2)cc1-c1ccc(N2CCc3cccc(C(=O)Nc4nc5ccccc5s4)c3C2)nc1C(=O)O` [Example 109, 6-[8-(1,3-benzothiazol-2-ylcarbamoyl)-3,4-dihydroisoquinolin-2(1H)-yl]-3-(2-methyl-5-phenoxyphenyl)pyridine-2-carboxylic acid], the pEC50 in assay [1] (Mus musculus) is under 6.00. Besides, at GST-Bcl-xL, the pKi is 7.31.

As for `O=C(Nc1nc2ccccc2s1)c1cccc2c1CN(c1ccc(-c3cnn(Cc4ccccc4OCc4ccncc4)c3)c(C(=O)O)n1)CC2` [Example 48, 6-[8-(1,3-benzothiazol-2-ylcarbamoyl)-3,4-dihydroisoquinolin-2(1H)-yl]-3-{1-[2-(pyridin-4-ylmethoxy)benzyl]-1H-pyrazol-4-yl}pyridine-2-carboxylic acid], the pEC50 in assay [1] (Mus musculus) was under 6.00. The pKi on GST-Bcl-xL is 8.15.

With `CCOC(=O)c1nn(Cc2ccccc2)c(C)c1-c1ccc(N2CCc3cccc(C(=O)Nc4nc5ccccc5s4)c3C2)nc1C(=O)O` [Example 33, 6-[8-(1,3-benzothiazol-2-ylcarbamoyl)-3,4-dihydroisoquinolin-2(1H)-yl]-3-[1-benzyl-3-(ethoxycarbonyl)-5-methyl-1H-pyrazol-4-yl]pyridine-2-carboxylic acid], the pEC50 in assay [1] (Mus musculus) is under 6.00. Further, the pKi at GST-Bcl-xL was 6.77.

On to `O=C(Nc1nc2ccccc2s1)c1cccc2c1CN(c1ccc(-c3cnn(Cc4ccccc4)c3-c3ccccc3)c(C(=O)O)n1)CC2` [Example 65, 6-[8-(1,3-benzothiazol-2-ylcarbamoyl)-3,4-dihydroisoquinolin-2(1H)-yl]-3-(1-benzyl-5-phenyl-1H-pyrazol-4-yl)pyridine-2-carboxylic acid], for which, in assay [1] (Mus musculus), the pEC50 was under 6.00. The pKi at GST-Bcl-xL was 6.41.

Take `COCCCC1(Cn2ncc(-c3ccc(N4CCc5cccc(C(=O)Nc6nc7ccccc7s6)c5C4)nc3C(=O)O)c2C)CCCCC1` [Example 97, 6-[8-(1,3-benzothiazol-2-ylcarbamoyl)-3,4-dihydroisoquinolin-2(1H)-yl]-3-(1-{[1-(3-methoxypropyl)cyclohexyl]methyl}-5-methyl-1H-pyrazol-4-yl)pyridine-2-carboxylic acid]: in assay [1], the pEC50 is over 9.00. Besides, the pKi on GST-Bcl-xL was 8.70.

As for `O=C(Nc1nc2ccccc2s1)c1cccc2c1CN(c1ccc(-c3cnn(CC4(c5ccccc5)CCCCC4)c3)c(C(=O)O)n1)CC2` [Example 67, 6-[8-(1,3-benzothiazol-2-ylcarbamoyl)-3,4-dihydroisoquinolin-2(1H)-yl]-3-{1-[(1-phenylcyclohexyl)methyl]-1H-pyrazol-4-yl}pyridine-2-carboxylic acid], the pEC50 in assay [1] (Mus musculus) was 6.97. Further, the pKi at GST-Bcl-xL is 8.15.

As for `Cc1c(-c2ccc(N3CCc4cccc(C(=O)Nc5nc6ccccc6s5)c4C3)nc2C(=O)O)cnn1CC1CCCOC1` (centres unmarked) [Example 66, 6-[8-(1,3-benzothiazol-2-ylcarbamoyl)-3,4-dihydroisoquinolin-2(1H)-yl]-3-[5-methyl-1-(tetrahydro-2H-pyran-3-ylmethyl)-1H-pyrazol-4-yl]pyridine-2-carboxylic acid], the pEC50 in assay [1] (Mus musculus) was 7.22. Further, the negative-log Ki (pKi) on GST-Bcl-xL is 8.52.

`O=C(Nc1nc2ccccc2s1)c1cccc2c1CN(c1ccc(-c3cnn(CC4CCCOC4)c3)c(C(=O)O)n1)CC2` (centres unmarked) [Example 56, 6-[8-(1,3-benzothiazol-2-ylcarbamoyl)-3,4-dihydroisoquinolin-2(1H)-yl]-3-[1-(tetrahydro-2H-pyran-3-ylmethyl)-1H-pyrazol-4-yl]pyridine-2-carboxylic acid]: the pEC50 in assay [1] (Mus musculus) was 6.23. On GST-Bcl-xL, the pKi is 7.62.

As to `COc1cccc(Cn2cc(-c3ccc(N4CCc5cccc(C(=O)Nc6nc7ccccc7s6)c5C4)nc3C(=O)O)cn2)c1` [Example 14, 6-[8-(1,3-benzothiazol-2-ylcarbamoyl)-3,4-dihydroisoquinolin-2(1H)-yl]-3-[1-(3-methoxybenzyl)-1H-pyrazol-4-yl]pyridine-2-carboxylic acid], in assay [1], the pEC50 was under 6.00. In addition, at GST-Bcl-xL, the pKi is 7.92.

Regarding `Cc1c(-c2ccc(N3CCc4cccc(C(=O)Nc5nc6ccccc6s5)c4C3)nc2C(=O)O)cnn1Cc1ccccc1F` [Example 41, 6-[8-(1,3-benzothiazol-2-ylcarbamoyl)-3,4-dihydroisoquinolin-2(1H)-yl]-3-[1-(2-fluorobenzyl)-5-methyl-1H-pyrazol-4-yl]pyridine-2-carboxylic acid], the pEC50 in assay [1] (Mus musculus) was 7.96. Further, the pKi on GST-Bcl-xL was 9.00.
